Experimental data published in patent publication US20200270265A1, “TETRACYCLIC PYRIDONE COMPOUNDS AS ANTIVIRALS” (Novartis AG, priority 2016, published 2020).

Columns and labels:
Type in all cases: in vivo
[1] = Pharmacokinetics in mice (iv and PO); conditions: iv 1.0 mg/kg, PO 2.0 mg/kg
[2] = Pharmacokinetics in dog (iv and PO); conditions: iv 0.5 mg/kg, PO 1.0 mg/kg
[3] = Pharmacokinetics in rat (iv and PO); conditions: iv 1.0 mg/kg, PO 2.0 mg/kg

SMILES | Oral BA [1] | T1/2term [1] | Oral BA [2] | T1/2term [2] | Oral BA [3] | T1/2term [3]
COCCCOc1cc2c(cc1OC)-c1c(F)c(=O)c(C(=O)O)cn1[C@H]1[C@@H]2CCC1(C)C [Compound 3.1, (3aS,12bR)-8-fluoro-10-methoxy-11-(3-methoxypropoxy)-3,3-dimethyl-7-oxo-1,2,3,3a,7,12b-hexahydrocyclopenta[c]pyrido[2,1-a]isoquinoline-6-carboxylic acid] | 87 % F | 3.8 h | 96 % F | 7.2 h | 57 % F | 9.2 h
COCCCOc1cc2c(cc1OC)-c1cc(=O)c(C(=O)O)cn1[C@H]1[C@@H]2OCC1(C)C [Compound 4.1, (3aR,12bR)-10-methoxy-11-(3-methoxypropoxy)-3,3-dimethyl-7-oxo-3,3a,7,12b-tetrahydro-2H-furo[3,2-c]pyrido[2,1-a]isoquinoline-6-carboxylic acid] | 100 % F | 1.8 h | 94 % F | – | 65 % F | 1.2 h
COCCCOc1cc2c(cc1OC)-c1cc(=O)c(C(=O)O)cn1[C@H]1[C@@H]2CCC1(C)C [Compound 1.1, (3aS,12bR)-10-methoxy-11-(3-methoxypropoxy)-3,3-dimethyl-7-oxo-1,2,3,3a,7,12b-hexahydrocyclopenta[c]pyrido[2,1-a]isoquinoline-6-carboxylic acid] | 59 % F | 1.6 h | 93 % F | 5.9 h | 97 % F | 2.4 h
